Where “and” joins values, the source holds several entries; their conditions need not be identical. Identical values can stand only once.
How the values were obtained:
Assay in all cases: area under concentration-response curve (viability) (AUC (a.u.)); higher = less active
Details in all cases: 48 h
[1] = test system: NCI-H295R
How it was run: (§1)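 Three adrenocortical carcinoma cell lines were exposed for 48 h to library compounds at 11 concentrations in 1,536-well plates, then read by CellTiter-Glo luminescence. Signals were scaled per plate against vehicle and empty-well controls. From fitted concentration-response curves of inhibitory or non-responding classes alone, AC50 and area under the curve were obtained.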

[2] = test system: CU-ACC1
How it was run: as §1

[3] = test system: CU-ACC2
How it was run: as §1

| SMILES | area under concentration-response curve [1] | area under concentration-response curve [2] | area under concentration-response curve [3] |
| --- | --- | --- | --- |
| Cn1cc(-c2c[nH]c3ncnc(N4CCOCC4)c23)cn1 | 576 | 543 | 610 |
| COC1=CC=C(C=C1)C/2=C(OC3O[C@@H](C)[C@H](O)[C@@H](O)[C@H]3O)/C(=O)C4=C(O2)C(=C(OC5O[C@H](CO)[C@@H](O)[C@H](O)[C@H]5O)C=C4O)CC=C(C)C (some centres not stated) | 564 | 510 | 624 |
| Fc1ccc(Cl)cc1-c1nc(Nc2ccncc2)c2nccnc2n1 | 549 | 553 | 612 |
| C[C@H](c1ccc(F)cc1CCCC(=O)O)N(c1cc(F)ccc1F)[S+](=O)([O-])c1ccc(Cl)cc1 | 553 | 519 | 596 |
| O=C(O)c1cccnc1 | 548 | 579 | 604 |
| NC(=O)[C@@H](CC1CC1)[C@@H](CCC(F)(F)F)C(=O)N[C@H]2\N=C(C3=CC=CC=C3)/C4=CC=CC(=C4NC2=O)F | 541 | 543 | 573 |
| CN1CCN(C(=O)[C@H]2[C@@H](C(=O)O)[C@H]3CC[C@@H]2O3)CC1 | 620 | 628 | 699 |
| Cc1nc2ccc(-n3ncc(C(=O)c4cc5ccccc5[nH]4)c3N)cc2[nH]1 | 519 | 550 | 595 |
| CC1=CC=C(C=C1)\C2=N\C3=CC=C(Cl)C=C3OC2 | 546 | 504 | 613 |
| CNC(=O)[C@H](Cc1ccccc1)NC(=O)[C@H](CC(C)C)[C@H](CSc1cccs1)C(=O)NO | 560 | 480 | 596 |
| C[S+](=O)([O-])OCCCCO[S+](C)(=O)[O-] | 507 | 463 | 514 |
| Nc1cc(c(cc1S(=O)(N)=O)S(N)(=O)=O)C(/Cl)=C(/Cl)Cl | 531 | 505 | 590 |
| COC1=C(F)C(=CC=C1)C/2=C(C)/N(CC3=C(F)C=CC=C3C(F)(F)F)C(=O)N(C[C@H](NCCCC(O)=O)C4=CC=CC=C4)C2=O | 556 and 555 | 508 | 598 and 615 |
| CNC1CCCN(C1)C2=C(F)C=C3C(=O)\C(=C/N(C4CC4)C3=C2OC)C(O)=O (configuration not stated) | 564 | 530 | 655 |
| COC(=O)[C@H](Cc1ccccc1)NC(=O)[C@@H](N)CC(=O)O | 558 | 518 | 618 |
| CC1=C(C)C\2=C(S1)[N]3C(=NN=C3[C@H](CC(N)=O)\N=C2C4=CC=C(Cl)C=C4)C | 452 | 516 | 538 |
| O=C(C[C@@H]1C/C=C\CCC(=O)O[C@H](c2ccccc2)CNC1=O)NCc1ccc(Cl)cc1 | 569 | 526 | 620 |
| Clc1ccc(-c2nc3sccn3c2/C=N/OCc2ccc(Cl)c(Cl)c2)cc1 | 425 | 490 | 549 |
| NC(CC1c2ccccc2Oc2ccccc21)(C(=O)O)C1CC1C(=O)O (configuration not stated) | 512 | 530 | 621 |

— the supplement of paper PMC10949913
